Source: ChEMBL document CHEMBL1126249, “Synthesis and antiviral activity of deoxy analogs of 1-[(2-hydroxyethoxy)methyl]-6-(phenylthio)thymine (HEPT) as potent and selective anti-HIV-1 agents” (J Med Chem, 1992)

test system: Human immunodeficiency virus 1; assay: Effective concentration required for 50% protection of MT-4 cells against the cytopathic effect of HIV-1; type: functional, organism-based; conditions: Human immunodeficiency virus 1, MT4

Structure (SMILES) | EC50
CCc1c(Sc2ccccc2)n(COCC2CCCCC2)c(=S)[nH]c1=O | 0.35 µM
CCOCn1c(Sc2ccccc2)c(C2CC2)c(=O)[nH]c1=S | 0.095 µM
CCc1c(Sc2ccccc2)n(COC(C)C)c(=O)[nH]c1=O | 0.34 µM
COCCOCn1c(Sc2ccccc2)c(C)c(=O)[nH]c1=O | 8.7 µM
CCc1c(Sc2ccccc2)n(COC2CCCCC2)c(=S)[nH]c1=O | 1.6 µM
CCc1c(Sc2cc(C)cc(C)c2)n(COCc2ccccc2)c(=O)[nH]c1=O | 0.0032 µM
CCOCn1c(Sc2ccccc2)c(C)c(=O)[nH]c1=O | 0.33 µM
Cc1c(Sc2ccccc2)n(COCc2ccccc2)c(=O)[nH]c1=O | 0.088 µM
CCc1c(Sc2ccccc2)n(COCc2ccc(C)cc2)c(=S)[nH]c1=O | 0.078 µM
CCc1c(Sc2ccccc2)n(COCc2ccc(Cl)cc2)c(=S)[nH]c1=O | 0.012 µM
CCc1c(Sc2ccccc2)n(COCc2ccccc2)c(=O)[nH]c1=O | 0.0059 µM
CCc1c(Sc2ccccc2)n(CC(C)C)c(=S)[nH]c1=O | 0.22 µM
CCc1c(Sc2ccccc2)n(COCc2ccccc2)c(=S)[nH]c1=O | 0.0078 µM
CCOCn1c(Sc2cc(Cl)cc(Cl)c2)c(CC)c(=O)[nH]c1=O | 0.0074 µM
CCOCn1c(Sc2ccccc2)c(C(C)C)c(=O)[nH]c1=O | 0.012 µM
Cc1c(Sc2ccccc2)n(COCCOCc2ccccc2)c(=O)[nH]c1=O | > 20 µM
CCOCn1c(Sc2ccccc2)c(C(C)C)c(=O)[nH]c1=S | 0.014 µM
CCc1c(Sc2ccccc2)n(COCCc2ccccc2)c(=S)[nH]c1=O | 0.091 µM
CCc1c(Sc2ccccc2)n(COCC2CCCCC2)c(=O)[nH]c1=O | 0.45 µM

test system: MT4; assay: Concentration required to inhibit replication of HIV-2 LAV-2rod strain in MT-4 cells; type: functional, cell-based; conditions: Homo sapiens

Structure (SMILES) | EC50
Cc1cn([C@H]2C[C@H](N=[N+]=[N-])[C@@H](CO)O2)c(=O)[nH]c1=O [ZIDOVUDINE] | 0.0028 µM
CCc1c(Sc2ccccc2)n(COCc2ccccc2)c(=O)[nH]c1=O | > 30 µM
CCc1c(Sc2ccccc2)n(COCc2ccccc2)c(=S)[nH]c1=O | > 100 µM

test system: MT4; assay: Concentration to required to reduce viability of Mock infected MT-4 cells; type: functional; conditions: Homo sapiens

Structure (SMILES) | CC50
Cc1cn([C@H]2C[C@H](N=[N+]=[N-])[C@@H](CO)O2)c(=O)[nH]c1=O [ZIDOVUDINE] | 7.8 µM
CCc1c(Sc2ccccc2)n(COCc2ccccc2)c(=O)[nH]c1=O | 30 µM
CCc1c(Sc2ccccc2)n(COCc2ccccc2)c(=S)[nH]c1=O | > 100 µM

test system: not listed separately; assay: Concentration required to reduce viability of Mock infected PBL (peripheral blood lymphocytes) cells.; type: functional; conditions: Homo sapiens

Structure (SMILES) | CC50
Cc1cn([C@H]2C[C@H](N=[N+]=[N-])[C@@H](CO)O2)c(=O)[nH]c1=O [ZIDOVUDINE] | 26 µM
CCc1c(Sc2ccccc2)n(COCc2ccccc2)c(=O)[nH]c1=O | 43 µM
CCc1c(Sc2ccccc2)n(COCc2ccccc2)c(=S)[nH]c1=O | 28 µM

test system: not listed separately; assay: Concentration required to reduce viability of mock-infected MT-4 cells; type: functional; conditions: Homo sapiens, MT4

Structure (SMILES) | CC50
CCc1c(Sc2ccccc2)n(COCC2CCCCC2)c(=S)[nH]c1=O | > 100 µM
CCOCn1c(Sc2ccccc2)c(C2CC2)c(=O)[nH]c1=S | 46 µM
CCc1c(Sc2ccccc2)n(COC(C)C)c(=O)[nH]c1=O | 143 µM
CCc1c(Sc2ccccc2)n(COC2CCCCC2)c(=S)[nH]c1=O | 223 µM
CCc1c(Sc2cc(C)cc(C)c2)n(COCc2ccccc2)c(=O)[nH]c1=O | > 20 µM
CCc1c(Sc2ccccc2)n(COCc2ccc(C)cc2)c(=S)[nH]c1=O | > 20 µM
CCc1c(Sc2ccccc2)n(COCc2ccc(Cl)cc2)c(=S)[nH]c1=O | > 20 µM
CCc1c(Sc2ccccc2)n(CC(C)C)c(=S)[nH]c1=O | > 100 µM
CCc1c(Sc2ccccc2)n(COCc2ccccc2)c(=S)[nH]c1=O | > 100 µM
CCOCn1c(Sc2cc(Cl)cc(Cl)c2)c(CC)c(=O)[nH]c1=O | 45 µM
CCOCn1c(Sc2ccccc2)c(C(C)C)c(=O)[nH]c1=O | 106 µM
CCOCn1c(Sc2ccccc2)c(C(C)C)c(=O)[nH]c1=S | > 100 µM
CCc1c(Sc2ccccc2)n(COCCc2ccccc2)c(=S)[nH]c1=O | > 20 µM
CCc1c(Sc2ccccc2)n(COCC2CCCCC2)c(=O)[nH]c1=O | 17 µM

test system: MT4; assay: Ratio of the EC50 against HIV-1 infected MT-4 cells and CC50 against mock infected MT-4 cells.; type: functional; conditions: not given

Structure (SMILES) | Selectivity index
Cc1cn([C@H]2C[C@H](N=[N+]=[N-])[C@@H](CO)O2)c(=O)[nH]c1=O [ZIDOVUDINE] | 2600
CCc1c(Sc2ccccc2)n(COCC2CCCCC2)c(=S)[nH]c1=O | >286
CCOCn1c(Sc2ccccc2)c(C2CC2)c(=O)[nH]c1=S | 484
CCc1c(Sc2ccccc2)n(COC(C)C)c(=O)[nH]c1=O | 421
COCCOCn1c(Sc2ccccc2)c(C)c(=O)[nH]c1=O | 34
CCc1c(Sc2ccccc2)n(COC2CCCCC2)c(=S)[nH]c1=O | 139
CCc1c(Sc2cc(C)cc(C)c2)n(COCc2ccccc2)c(=O)[nH]c1=O | >6250
CCOCn1c(Sc2ccccc2)c(C)c(=O)[nH]c1=O | 700
Cc1c(Sc2ccccc2)n(COCc2ccccc2)c(=O)[nH]c1=O | 1080
CCc1c(Sc2ccccc2)n(COCc2ccc(C)cc2)c(=S)[nH]c1=O | >256
CCc1c(Sc2ccccc2)n(COCc2ccc(Cl)cc2)c(=S)[nH]c1=O | >1670
CCc1c(Sc2ccccc2)n(COCc2ccccc2)c(=O)[nH]c1=O | 5800
CCc1c(Sc2ccccc2)n(CC(C)C)c(=S)[nH]c1=O | >455
CCc1c(Sc2ccccc2)n(COCc2ccccc2)c(=S)[nH]c1=O | >12800
CCOCn1c(Sc2cc(Cl)cc(Cl)c2)c(CC)c(=O)[nH]c1=O | 6080
CCOCn1c(Sc2ccccc2)c(C(C)C)c(=O)[nH]c1=O | 8830
Cc1c(Sc2ccccc2)n(COCCOCc2ccccc2)c(=O)[nH]c1=O | 2.3
CCOCn1c(Sc2ccccc2)c(C(C)C)c(=O)[nH]c1=S | >7140
CCc1c(Sc2ccccc2)n(COCCc2ccccc2)c(=S)[nH]c1=O | >220
CCc1c(Sc2ccccc2)n(COCC2CCCCC2)c(=O)[nH]c1=O | 38

test system: not listed separately; assay: Concentration required to inhibit replication of HIV-1 HTLV-IIIB strain in PBL (peripheral blood lymphocytes) cells; type: functional, cell-based; conditions: Homo sapiens

Structure (SMILES) | EC50
Cc1cn([C@H]2C[C@H](N=[N+]=[N-])[C@@H](CO)O2)c(=O)[nH]c1=O [ZIDOVUDINE] | 0.0014 µM
CCc1c(Sc2ccccc2)n(COCc2ccccc2)c(=O)[nH]c1=O | 0.0015 µM
CCc1c(Sc2ccccc2)n(COCc2ccccc2)c(=S)[nH]c1=O | 0.0037 µM
